The text below walks through data of paper PMC6982022 (International Journal of Molecular Sciences, 2019).

Data set [1] has as its system C57BL6J mice. The experiment in a line: Testis histology (H&E) after 35 days oral dosing. Conditions: 15, 25 or 50 mg/kg, oral daily. Type of data set: in vivo, mouse. The procedure: Groups of six mice, each, were used for three different doses of NB-DNJ or NB-DGJ formulated in milliQ water at 50 mg/kg, 25 mg/kg and 15 mg/kg, respectively. Control groups were given an equivalent volume of water. Animals were given compound or control once daily for 35 consecutive days via oral gavage using animal feeding needles (Biomedical Needles, Popper, NY, USA). Body weight was noted every week for all treatment groups. Mice were euthanized at the end of a 35 days dosing regimen using CO2 asphyxia followed by cervical dislocation. Testes were harvested, weighed and stored in Bouin’s fixative for 48 h, then sliced into two halves, and stored in fresh Bouin’s for another 24 h. The tissue slices were then rinsed in 70% ethanol and processed and stained for histology using a standard protocol for Hematoxylin and eosin staining. Spermatids with elongated and abnormally shaped heads were counted per 20 fields and average number calculated for 6 mice/group.

A short description of data set [2]: Pharmacokinetic study, single oral bolus, plasma LC/MS/MS. The following applies: male CD rats, single oral 150 mg/kg; for Cmax: male, CD, plasma, po, 150 mg/kg. Type of data set: in vivo, rat. Here is the method: Four male CD rats (225–235 g) were purchased from Harlan (Indianapolis, IN, USA) with in-dwelling jugular cannulas and allowed to acclimate for 72 h in climate-regulated holding rooms in the University of Minnesota’s AAALAC-certified animal facilities. Standard rat chow and water were provided ad libitum throughout the study. NB-DGJ was formulated as described above to 33.75 mg/mL for in vivo administration. Rats were dosed orally by using a 15 G × 3” disposable gavage needle with a maximum volume of 5 mL/kg body weight. At various time points (0.083, 0.25, 0.5, 1, 2, 4, 8, 12, 24 and 48 h) following dosing, approximately 0.1 mL of blood was collected from each rat into BD Microtainer® with Lithium Heparin (Becton-Dickinson). Plasma was then isolated by allowing the samples to sit at room temperature for 30 min followed by microcentrifugation at 15,000× g for 5 min. Plasma samples were then stored at −70 °C until processing and analysis.
Frozen plasma samples were thawed on ice and processed by adding 2 volumes of 100% acetonitrile (containing 750 ng/mL miglitol (N-hydroxyethyl-1-deoxynojirimycin) as an internal standard) and vortexed. The samples were then incubated on ice for 1 h and then microcentrifuged at 15,000× g for 5 min. The cleared supernatants were then transferred to 12 × 32 mm glass vials with inserts (Thermo Scientific™ National™ Inserts for Target™ LoVial™ Wide-Opening Vials).
Processed samples were analyzed by LC/MS/MS using a previously published method. A standard curve consisting of normal rat plasma containing varying concentrations (1500, 500, 166.7, 55.6, 18.5, 6.2, 2.1, 0.7 and 0.22 ng/mL) of NB-DGJ was constructed and processed as described above. The analytical system was composed of a Quattro Ultima triple quadrupole MS/MS coupled with a Waters Acquity UPLC (Ultra Performance Liquid Chromatography). UPLC isocratic separation of analytes was performed using a Waters Atlantis Hilic 3 µm, 150 × 2.1 mm analytical column (Waters Corporation, Milford, MA, USA) maintained at 30 °C. The eluent was a mixture of acetonitrile/water/buffer (75/10/15, v/v/v) delivered at 0.25 mL/min. The buffer consisted of 100 mM ammonium acetate, pH 5. For the quantification of NB-DGJ and miglitol (internal standard), the transitions m/z 220 (Q1) → m/z 158 (Q3) and m/z 208 (Q1) → m/z 146 (Q3) were monitored, respectively. Data reduction was performed with QuanLynx software. PK analysis was performed by WinNonLin using a non-compartmental model.

The subject of data set [3] is adult male CD rats. The experiment in a line: Parameters measured at necropsy at end of fertility trial (week 11). Type of data set: in vivo, rat. From the text:
Rats were weighed on day 0 (first day of dosing) and weekly thereafter. Dosages were adjusted based on the most recent body weight. Males were cohabited with untreated females (one male per two females) weekly at weeks 1 through 9 [38, 39]. Females were necropsied seven days after separation from males to determine the numbers of implantation sites. Individual male rats were bled from the tail vein at weeks 0, 1, 4, and 7 and serum was harvested by centrifugation. At week 11, the male rats were weighed, anesthetized, and exsanguinated. Sera were analyzed for inhibin B by ELISA (enzyme-linked immunosorbent assay), and rat follicle stimulating hormone (rFSH) and testosterone by radioimmunoassay. Testes, epididymides, ventral prostates, and seminal vesicles were excised and weighed. The left testis was homogenized, and spermatid head counts obtained.
Sperm were obtained from the left cauda epididymis and evaluated for sperm motility, as follows. The cauda epididymis was punctured with an 18-gauge needle and sperm expressed into the well of a culture slide. The sperm were diluted with capacitation buffer containing 0.1% BSA to obtain about 20–40 sperm per field as viewed in the inverted microscope. The number of motile and non-motile sperm was determined, and the percent of motile sperm were calculated. A smear of the diluted sperm was also prepared and used to assess sperm morphology under phase contrast. The percent of normal/abnormal sperm were calculated.
Statistical analysis using the Student’s t-test was performed on body weights, paired testes weights, ventral prostrate weights, seminal vesicle weights, paired epididymal weights, spermatid head counts, percent motile and normal epididymal sperm. We used analysis of variance (ANOVA) for serum inhibin B, rFSH, and testosterone, since these measurements were repeated throughout the study period. The effect of NB-DNJ at 15 mg/kg/day dose in the rat model was studied following the same protocol as that for NB-DGJ.

Data set [4] relates to CGT. The following applies: cited from earlier work.
[5] abbreviates: 150 mg/kg/day on days 0-34, week 11, n = 6.

Several values for one entry are separate records, joined by “and”; a condition that tells them apart may be missing. Equal values may be shown once. Read-outs that look alike come from different tables or passages of the source.

Consider `CCCCN1C[C@H](O)[C@@H](O)[C@@H](O)[C@H]1CO` [NB-DGJ, N-butyldeoxygalactonojirimycin], for which the “Testis histology, spermatid heads (in words)” value in data set [1] is “rounded, abnormally shaped spermatid heads”. In data set [2] (n = 4, plasma), this molecule showed a t½_Lambda_z of 6.5 h. Besides, the Cmax (commonly the highest concentration seen after dosing) in data set [2] (rat, converted from ng/mL, read-out: Cmax (plasma level) in molar units) stood at 50 µM. Also, the Cmax in data set [2] (rat, n = 4, plasma, read-out: Cmax) came out at 11000 ng/mL. The tmax in data set [2] (rat, n = 4, plasma) is 1.3 h. The AUC(0-inf) in data set [2] (rat, n = 4, plasma, non-compartmental, read-out: AUCINF_Obs) is 55600 ng·h/mL. The “Final Body Weight Week 11 (g ± SE)” value in data set [3] (150 mg/kg/day on days 0-34, n = 6) was 572 ± 17 g. Further, the “Ventral prostate weight versus vehicle” value in data set [3] (150 mg/kg/day on days 0-34, week 11, Student's t-test) is reported as “No significant difference”. Moreover, in data set [3] (setting [5]), the “Mean Epididymal Sperm Motility (%)” value was 60% and 60 ± 3 %; the “Mean Epididymal Sperm with Normal Morphology (% ± SE)” value is given as 72 ± 1 %; the “Mean Paired Epididymal Weight (g ± SE)” value was found to be 1.64 ± 0.03 g; the “Mean Paired Testis Weight (g ± SE)” value is 3.80 ± 0.11 g. Also, in data set [3] (setting [5]), the “Mean Seminal Vesicle Weight with Coagulating Gland” value turned out to be 1.40 ± 0.11 g and the “Mean Spermatid Head Count/Testis” value is listed as 123.59 ± 3.73 Cells × 10^6. Also, in data set [4] (ref 20), the 50% inhibitory concentration (IC50) (commonly the concentration needed to halve the response being measured) is 41.4 µM. Further, the IC50 in data set [4] (ref 36) was 10 µM.
